One data set has as its target DRB1_0701 (Homo sapiens, UniProt P01903+P01911, A100R/A102G/A103Q/D57E/D86V/E43K/F76Y/K127E/L162R/M171V/P40G/Q125H/Q99D/R33Q/R42Y/R54Q/S133A/S66F/T210M/V115G/Y107V/Y59L/Y89S). The data set is described as follows: Competitive MHC class II binding assay, DRB1_0701.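 Note: displacement of a radiolabeled reference peptide from purified HLA class II protein, with complex-bound radioactivity counted after 2–4 days of incubation and six concentrations spanning a 100,000-fold range.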
In another data set the target is DRB1_0101 (Homo sapiens, UniProt P01903+P01911, A100R/D57E/F55L/F60I/F76Y/I96L/L162R/M171V/P40L/Q125E/R42F/V115G/Y59C). The data set is described as follows: Competitive MHC class II binding assay, DRB1_0101.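 Note: competition against a radiolabeled probe peptide (0.1–1 nM) for purified HLA class II protein over 2–4 days, bound counts read after antibody capture, six competitor levels across 100,000-fold.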
The next data set addresses DQA10501-DQB10301 (Homo sapiens, UniProt P01909+P01920). Put plainly: Competitive MHC class II binding assay, DQA10501-DQB10301.
A further data set has as its target DRB1_1501 (Homo sapiens, UniProt P01903+P01911). Put plainly: Competitive MHC class II binding assay, DRB1_1501.
The next data set has as its target DRB1_1302 (Homo sapiens, UniProt P01903+P01911, A100E/A169T/K41T/L162R/M171V/P40S/Q125H/Q178H/Q39Y/Q99D/R42S/S66N/T262R/V115G/W38E/Y61H). Put plainly: Competitive MHC class II binding assay, DRB1_1302.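 Note: purified HLA class II protein incubated two to four days with a radiolabeled reference binder and test peptide at six concentrations over a 100,000-fold range, complex-bound radioactivity counted.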
Another data set has as its target DRB1_0901 (Homo sapiens, UniProt P01903+P01911, A100R/A103E/D57H/D86V/F55Y/F60I/F76Y/I96F/K127E/L162R/M171V/P40D/Q125H/Q99R/R33Q/R42F/S133A/S66N/T210M/V115G/W38K/Y107V/Y59G/Y89S). The data set is described as follows: Competitive MHC class II binding assay, DRB1_0901.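 Note: displacement of a radiolabeled probe peptide from purified HLA class II protein, bound counts read after two to four days incubation, six concentrations spanning 100,000-fold, unlabeled probe as reference.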
The next data set addresses DRB4_0101 (Homo sapiens, UniProt P01903+P13762, G164S). Put plainly: Competitive MHC class II binding assay, DRB4_0101.
The target in the next data set is DQA10102-DQB10602. Put plainly: Competitive MHC class II binding assay, DQA10102-DQB10602. To be noted: read-out: HLA-DQA10102-DQB10602; positive binding at cutoff 1000 nM.
Another data set deals with DRB1_0802 (Homo sapiens, UniProt P01903+P01911, A100R/A103L/A169T/F76Y/H45Y/I96F/K41T/L162R/M171V/P40S/Q125H/Q178H/Q39Y/Q99D/R218S/R42G/S66Y/V115G/W38E). Put plainly: Competitive MHC class II binding assay, DRB1_0802.
For another data set, the target named is DRB1_0405 (Homo sapiens, UniProt P01903+P01911, A100R/A169T/D86S/F76Y/I96L/K127E/L162R/M171V/N62H/P40V/Q125Y/R42H/S133A/S149N/S66Y/V115G/V209L/W38E). Put plainly: Competitive MHC class II binding assay, DRB1_0405.
For the next data set, the target named is DRB1_0401 (Homo sapiens, UniProt P01903+P01911, A100K/A169T/F76Y/I96L/K127E/L162R/M171V/N62H/P40V/Q125Y/R42H/S133A/S149N/S66Y/V115G/V209L/W38E). The data set is described as follows: Competitive MHC class II binding assay, DRB1_0401.
The target of another data set is DRB3_0101 (Homo sapiens, UniProt P01903+P79483). Put plainly: Competitive MHC class II binding assay, DRB3_0101.
Data set [1] can be described thus: Solubility of peptides in aqueous solutions at different pH (visual inspection, OD, HPLC). Type of data set: physicochemical. To be noted: for Solubility at pH 7: evaluated by visual inspection. The text has this: This example describes modifications of parent peptides to improve the aqueous solubility, in particular to increase the solubility in an aqueous solution having pH in a physiologically acceptable range, e.g. from 6 to 8. Solubility is closely related to the ratio between hydrophilic and hydrophobic amino acid residues and the net charge state of the peptide. Peptides have zero net charge at pH=pI, and would be expected to show the lowest solubility at this pH. […] The solubility of these peptides was increased at pH values outside the physiological range (data not shown).
Peptides were tested for their ability to dissolve in aqueous solutions at different pH values. In short, each of the peptides were dissolved in water (pH about 5-6), hydrochloride solution at pH 2 (10 mM HCl), acetate buffer with pH 5 (20 mM acetate and 140 mM sodium chloride), phosphate buffer with pH 7 (20 mM phosphate and 140 mM sodium chloride) or bistrispropate buffer with pH 9 (20 mM bitrispropane and 140 mM sodium chloride, respectively, to produce a final molar concentration of the peptide of about 0.25 mM or 1 mM. Optionally, about 20% DMSO may be part of the solution. For comparison reasons, peptides were also dissolved in acetonitrile or DMSO. The solutions were inspected visually before and after centrifugation for turbidity, presence of particles/aggregates. In addition, presence of turbidity/particles/aggregates were detected by optical density (OD), but might also be detected by size-exclusion chromatography. Sub-visual particles may also be detected by dynamic light scattering (DLS) analysis. The solubility and stability of each peptide were also investigated using HPLC, e.g. RP-HPLC. For example, each of the solutions were injected onto the HPLC and the peak height or peak area of each of the peptides were compared to the corresponding peptide of a chromatogram of peptides dissolved in acetonitrile or DMSO—as peptides were assumed to be fully dissolved and stable in these solvents.

Another data set deals with DRB3_0202 (Homo sapiens, UniProt P01903+P79483, A212P/D57E/F66Y/L67A/R103Q/R218S/R40L/S89Y/T80R/V86D/Y55F/Y59H). The data set is described as follows: Competitive MHC class II binding assay, DRB3_0202.
Another data set concerns the target DQA10501-DQB10201 (Homo sapiens, UniProt P01909+P01920, A45G/A70V/D89A/E106A/E77G/E98D/H199R/L107V/N214S/P84L/P87L/T103K/T109R/T172A/T60S/V78E/V99I/Y58L/Y62S/Y69I/Y79F). The data set is described as follows: Competitive MHC class II binding assay, DQA10501-DQB10201.
In another data set the target is DRB5_0101 (Homo sapiens, UniProt P01903+Q30154). The data set is described as follows: Competitive MHC class II binding assay, DRB5_0101.

The values that follow come from patent US20160251403A1, “PEPTIDE COMBINATIONS AND USES THEREOF IN TREATING DUST MITE ALLERGY” (ALK-ABELLO A/S, priority 2013, published 2016).

No end group written: not given here.

On to `CC[C@H](C)[C@H](NC(=O)[C@@H](NC(=O)[C@@H](N)CO)[C@@H](C)CC)C(=O)N[C@@H](Cc1c[nH]cn1)C(=O)N[C@@H](CCCNC(=N)N)C(=O)NCC(=O)N[C@@H](CCCCN)C(=O)N1CCC[C@H]1C(=O)N[C@@H](Cc1ccccc1)C(=O)N[C@@H](CCC(N)=O)C(=O)N[C@@H](CC(C)C)C(=O)N[C@@H](CCC(=O)O)C(=O)N[C@@H](C)C(=O)O` [pep-002], for which the IC50 on DRB1_0701, on DRB1_0101, on DQA10501-DQB10301, at DRB1_1501, at DRB1_1302 and at DRB1_0901 was under 1000 nM each time. This molecule displayed an IC50 at DRB4_0101 of under 1000 nM.
As to `CC[C@H](C)[C@H](NC(=O)CNC(=O)[C@@H](N)CCCNC(=N)N)C(=O)N[C@@H](CCC(=O)O)C(=O)N[C@@H](Cc1ccc(O)cc1)C(=O)N[C@H](C(=O)N[C@@H](CCC(N)=O)C(=O)N[C@@H](Cc1c[nH]cn1)C(=O)N[C@@H](CC(N)=O)C(=O)NCC(=O)N[C@H](C(=O)N[C@H](C(=O)N[C@@H](CCC(N)=O)C(=O)N[C@@H](CCC(=O)O)C(=O)N[C@@H](CO)C(=O)O)C(C)C)C(C)C)[C@@H](C)CC` [pep-025], at DQA10102-DQB10602, the IC50 is under 1000 nM.
Take `CC[C@H](C)[C@H](NC(=O)[C@H](CO)NC(=O)[C@@H]1CCCN1C(=O)[C@H](CCC(=O)O)NC(=O)[C@H](CO)NC(=O)CNC(=O)[C@H](Cc1c[nH]cn1)NC(=O)[C@H](CO)NC(=O)CN)C(=O)N[C@H](C(=O)N[C@@H](Cc1c[nH]cn1)C(=O)N[C@@H](CCCNC(=N)N)C(=O)NCC(=O)N[C@@H](CCCCN)C(=O)N1CCC[C@H]1C(=O)N[C@@H](Cc1ccccc1)C(=O)N[C@@H](CCC(N)=O)C(=O)N[C@@H](CC(C)C)C(=O)N[C@@H](CCC(=O)O)C(=O)N[C@@H](C)C(=O)O)[C@@H](C)CC` [pep-090]: the IC50 at DRB1_0701, at DRB1_0101, on DQA10501-DQB10301, at DQA10102-DQB10602, on DRB1_1501 and at DRB1_1302 was under 1000 nM throughout. For the same molecule, the IC50 on DRB1_0901 and on DRB4_0101 was under 1000 nM in each case.
On to “ESVKYVQSNGGAI [HDM201, reference compound]”, for which the IC50 at DRB1_0802, at DRB1_0405, at DRB1_0701, on DRB1_0401, on DRB1_0101 and on DRB1_1501 was under 1000 nM in each case. Also, the IC50 on DRB1_1302, on DRB1_0901, on DRB4_0101 and at DRB3_0101 was under 1000 nM in each case.
For GSHGSDPSIIHRGKPFTLEA [pep-102], the IC50 on DRB1_0701, at DRB1_0101, at DQA10501-DQB10301, at DQA10102-DQB10602, on DRB1_1501 and on DRB1_0901 was under 1000 nM each time. Further, the IC50 at DRB4_0101 is under 1000 nM.
Consider HRGKPFQLEAVFEANQNTKT-NH2 [pep-151], for which, in [1] (Table 11c), the “Solubility at pH 7” value is recorded as “Clear”.
Take KIREALAQTHSAIAVIIGIKDLDA-NH2 [pep-150]: the “Solubility at pH 7” value in data set [1] (Table 11c) is on record as “Clear”.
Same read-out and setting: as for LVGDNGVLASAIATHAKIRD-NH2 [pep-149], the entry is “Clear”.
With NHEIKKVLVPGSHGSEPSII [pep-089], the IC50 at DRB1_0802 and on DRB4_0101 was under 1000 nM throughout.
Take RGIEYIQQNGVVEERSYPYVAR [pep-134]: the “Solubility at pH 7” value in data set [1] (Table 11a) is reported as “Clear”.
As to RHAVNIVGYSNAQGVDYWIVR [Peptide 136], in data set [1], the “Solubility at pH 7 (visual inspection)” value is reported as “Slight turbid”.
For RHAVNIVGYSNAQGVDYWIVRR [Peptide 137], the “Solubility at pH 7 (visual inspection)” value in data set [1] is recorded as “Clear”.
On the same count and under the same terms, for RIEYIQQNGVVEERSYPYVAR [Peptide 139] the value was “Clear”.
Same read-out and setting: for RIEYIQQNGVVEERSYPYVARR [Peptide 140] the value was “Clear”.
In the case of RREALAQTHSAIAVIIGIKDLDA [Peptide 143], the “Solubility at pH 7 (visual inspection)” value in data set [1] was “Slight turbid”.
On to RREALAQTHSAIAVIIGIKDLDAR [Peptide 144], for which the “Solubility at pH 7 (visual inspection)” value in data set [1] is “Clear”.
Still for that read-out and setting: for RRHAVNIVGYSNAQGVDYWIVRR [Peptide 138] the value was “Slight turbid”; for RRHAVNIVGYSNAQGVDYWIVRRR [Peptide 133], “Clear”.
For RRIEYIQQNGVVEERSYPYVARR [Peptide 141], the “Solubility at pH 7 (visual inspection)” value in data set [1] was “Clear”.
For RRIEYIQQNGVVEERSYPYVARRR [Peptide 142], the “Solubility at pH 7 (visual inspection)” value in data set [1] is “Clear”.
The same measure, in the same setting: as for RRREALAQTHSAIAVIIGIKDLDAR [Peptide 145], the entry is “Clear”.
Turning to “RRREALAQTHSAIAVIIGIKDLDARR [Peptide 146]”, the “Solubility at pH 7 (visual inspection)” value in [1] is listed as “Clear”.
The same measure, in the same setting: as for RRRRHAVNIVGYSNAQGVDYWIVR [Peptide 132], the entry is “Slight turbid”.
Take TNASSINGNAPAEIDLRQM [pep-041]: the IC50 at DRB3_0202, on DRB1_1302, at DQA10501-DQB10201 and on DRB3_0101 was under 1000 nM each time.
In the case of YPPNANKIREALAQTHSAIA [pep-053], the IC50 at DRB1_0701, on DRB1_0101, on DQA10501-DQB10301, at DQA10102-DQB10602, on DRB1_0901 and at DRB5_0101 was under 1000 nM throughout. Besides, the IC50 at DRB4_0101 is under 1000 nM.
